# Assay results: PMC11312813, “An Optimized Peptide Antagonist of CXCR4 Limits Survival of BCR–ABL1-Transformed Cells in Philadelphia-Chromosome-Positive B-Cell Acute Lymphoblastic Leukemia” (International Journal of Molecular Sciences, 2024)
# Structures can show the parent of a compound that is named as a salt.
# Key:
# caspase 3/7 = assay: Caspase-Glo 3/7 activation assay in BCR–ABL1 cells; format: cell-based, mouse; conditions: 10 µM, 24 and 48 h; n = 3
# Protocol: (§1) BCR–ABL1 cells were plated at 0.5 × 10^5 cells/well of a 96-well plate in 100 μL of complete media and treated with DMSO or various inhibitors. At specific time points (24, 48 and 72 h), activation of caspases was measured with a Caspase-Glo® 3/7 Assay (#G8090) and Caspase-Glo® 8 Assay (#G8200, Promega, Madison, WI, USA) following the manufacturer’s instructions.
# [1] = tested on: AKT phosphorylation (PI3K signaling downstream of CXCR4); assay: Western blot, AKT S473 phosphorylation in BCR–ABL1 cells; format: cell-based; conditions: 10 µM, 100 ng/mL mouse CXCL12, 5 min; n = 3
# Protocol: (§2) BCR–ABL1 cells were collected as 5 × 10^6 cells/500 μL complete media and treated either with DMSO or different inhibitors in the absence and presence of 100 ng/mL mouse CXCL12 for 5, 15, and 30 min at 37 °C. Cells were then immediately transferred onto ice to stop the reaction and washed with ice-cold PBS. Cell extract was prepared by resuspending the cell pellet in 100 μL of radio-immunoprecipitation assay (RIPA) buffer supplemented with 1X protease inhibitor cocktail (#78429, Thermo Fisher), 1 mM sodium orthovanadate (Sigma-Aldrich), and 10 mM beta-glycerophosphate (Sigma-Aldrich). For each treatment, 15 μL of cell extract was mixed with 5 μL of 4X Laemmli buffer (reducing), boiled at 95 °C for 10 min, and run on 10% SDS-PAGE. Gels were wet-transferred to PVDF membranes (Millipore, Burlington, MA, USA) and stained with 0.1% ponceau-S solution to check for efficient blotting. The membranes were blocked with 3% BSA solution and incubated with primary antibodies at 4 °C overnight. The next day, primary antibodies were washed, and membranes were probed with horseradish peroxidase (HRP)-conjugated secondary antibodies at RT for 2 h. After washing, the blots were developed using Immobilon ECL Ultra Western HRP Substrate (#WBULS0500, Millipore), and images were acquired with a Fusion SL gel imaging system (Vilber Lourmat, Eberhardzell, Germany). […]
# [2] = tested on: ERK1/2 phosphorylation downstream of CXCR4; assay: Western blot, ERK1/2 T202/Y204 phosphorylation in BCR–ABL1 cells; format: cell-based; conditions: 10 µM, 100 ng/mL mouse CXCL12, 5 min; n = 3
# Protocol: as §2
# [3] = tested on: pro/anti-apoptotic genes (Jun, Bax, Bim, Bcl2, Bcl-xl, FasL); assay: Real-time gene expression analysis (Taqman) in BCR–ABL1 cells; format: cell-based, mouse; conditions: 10 µM, n = 3
# Protocol: BCR–ABL1 cells were plated at 1 × 10^6 cells/well of a 12-well plate in 1 mL of complete media and treated with DMSO or various inhibitors. After specific time points (24 and 48 h), RNA was isolated from cells using a ReliaPrep Cell RNA miniprep kit (#Z6011, Promega). Fifty nanograms of total RNA was reverse-transcribed using a high-capacity RNA to cDNA kit (#4387406, Thermo Fisher), and gene expression was measured via Taqman assay using Taqman Gene expression master mix (#4369016, Thermo Fisher) following ghd manufacturer’s protocol. The following Taqman probes were used: Jun (Mm07296811_s1), Bax (Mm00432051_m1), Bim (Mm00437796_m1), Bcl2 (Mm00477631_m1), Bcl-xl (00437783_m1), FasL (Mm00438864_m1), and beta actin (04394036_g1).
# SupB15 cells = assay: Flow cytometric cell survival analysis, SupB15; format: cell-based, human; conditions: for SupB15 cell survival vs DMSO: 10 µM, 24–96 h, n = 3; for Dead gate (viability dye) / Live gate (viability dye): JM#170 10 µM, representative histogram of n = 3
# Protocol: Cells treated with either solvent control DMSO or different concentrations of inhibitors for different time points were collected and washed with ice-cold PBS. […] After washing, labeled cells were resuspended in 100 μL of PBS and acquired using LSR-Fortessa (BD Bioscience, Heidelberg, Germany). FACS data were analyzed with FlowJo software version 10.0.
# CXCR4 [4] = assay: Anti-CXCR4 antibody (clone L276F12) competition assay in BCR–ABL1-transformed mouse B cells; format: binding; conditions: 2 h at 4 °C, FACS, n = 3; for Anti-CXCR4 antibody binding to CXCR4: serially diluted 10 µM to 1 nM
# Protocol: (§3) An anti-CXCR4 competition assay was conducted as previously described. […] Afterward, the cells were washed to remove unbound inhibitors and antibody, and measured via FACS for the fluorescence signal of the bound antibody. The fluorescence signal corresponding to only antibody (no inhibitor) was considered to be 100% antibody binding.
# [5] = tested on: BCR–ABL1-transformed mouse B cells; assay: Cell proliferation assay (cell trace dye dilution); format: cell-based; conditions: 10 µM, 48 and 72 h; n = 3
# Protocol: BCR–ABL1 cells were collected at 0.5 × 10^5 cells/well of a 96-well plate and labeled with cell trace far red cell proliferation dye (#C34564, Invitrogen, Dreieich, Germany), according to the manufacturer’s instructions. Labeled cells were plated in 100 μL of complete media and were mixed with equal volume of 2X DMSO or inhibitor-containing media. A small part of the labeled cells was measured in FACS to determine the fluorescence signal on day 0. After specific time periods (48 and 72 h), cells were collected, washed with FACS buffer, and analyzed using LSR-Fortessa (BD Bioscience).
# CXCR4 [6] = assay: Anti-CXCR4 antibody (clone 12G5) competition assay in SupB15 cells; format: binding, human; conditions: increasing concentrations (1 nM to 10 µM), n = 2–3
# Protocol: as §3
# caspase 8 = assay: Caspase-Glo 8 activation assay in BCR–ABL1 cells; format: cell-based, mouse; conditions: 10 µM; n = 3
# Protocol: as §1
# CXCR4 [7] = assay: CXCL12-driven calcium flux in 697 cells; format: cell-based; conditions: 1 µM, 10 min pre-treatment, 100 ng/mL human CXCL12; n = 3
# Protocol: Ca^2+ signaling was analyzed as described previously. Briefly, SupB15 and 697 cells were collected at 1 × 10^6 cells/treatment and loaded with calcium-sensitive dye Indo-1 AM (#I1223, Invitrogen) and 0.5 mg/mL of pluronic F-127 (#P3000MP, Invitrogen) in their respective media supplemented with 1% FBS at 37 °C for 45 min. Cells were then washed and treated with the inhibitors for 10 min at 37 °C. Baseline signal for calcium was measured for 30 s via flow cytometry, followed by stimulation with 100 ng/mL human CXCL12. The area under the curve (AUC) of each calcium flux plot was determined using FlowJo. The AUC of the water control (solvent for CXCL12) was subtracted from each treatment to obtain the correct estimation of the calcium signal upon CXCL12 stimulation.
Compound,Caspase 3/7 activation vs DMSO (caspase 3/7),CXCL12-induced AKT S473 phosphorylation [1],CXCL12-induced ERK1/2 T202/Y204 phosphorylation [2],SupB15 cell survival vs DMSO (SupB15 cells),Concentration effective in inhibiting antibody binding to CXCR4 (CXCR4 [4]),Anti-CXCR4 antibody binding to CXCR4 (CXCR4 [4]),Proliferation of BCR–ABL1 cells (dye dilution) vs DMSO [5],12G5 antibody binding to CXCR4 (CXCR4 [6]),Caspase 8 activation vs DMSO (caspase 8),"CXCL12-induced calcium flux, 697 (CXCR4 [7])",also measured
"c1cc(CN2CCCNCCNCCCNCC2)ccc1CN1CCCNCCNCCCNCC1 [AMD3100, AMD3100 octahydrochloride hydrate, reference compound]",did not induce any caspase activation,this elevation was blocked,this elevation was blocked,no effect on SupB15 cell survival,~ 1 μM,significantly inhibited the antibody binding,significantly reduced the proliferation,significantly inhibited 12G5 binding,neither JM#170 nor AMD3100 induced caspase 8,completely blocked the calcium flux,Pro/anti-apoptotic gene expression ([3]; 24 and 48 h): did not upregulate any gene expression
"ILRWSRK * (Pal)-NH2 [JM#170, lipid-conjugated truncated version of EPI-X4, CXCR4 antagonist]",significant increase in caspase 3/7 activation,this elevation was blocked,this elevation was blocked,significantly reduced SupB15 cell survival,~ 10 nM,significantly inhibited the antibody binding,no effect on proliferation,significantly inhibited 12G5 binding,neither JM#170 nor AMD3100 induced caspase 8,completely blocked the calcium flux,"Bax gene expression ([3]; 24 h): mildly upregulated; Bcl2 gene expression ([3]; 24 h): significant increase; Bcl-xl gene expression ([3]; 24 h): not altered at all; Bim gene expression ([3]; 24 h): significantly elevated; Jun gene expression ([3]; 24 h): significantly elevated; Bax, Bim and Bcl2 gene expression ([3]; 48 h): still significantly elevated levels; FasL gene expression [3]: inactivation of FasL; Dead gate (viability dye) (SupB15 cells; 24 h): 19.0; Live gate (viability dye) (SupB15 cells; 24 h): 81.0; Dead gate (viability dye) (SupB15 cells; 72 h): 33.3; Live gate (viability dye) (SupB15 cells; 72 h): 66.7; Dead gate (viability dye) (SupB15 cells; 96 h): 41.7; Live gate (viability dye) (SupB15 cells; 96 h): 58.3"
